# Assay results as given in patent US4324728A, “Compound nanaomycin A and derivatives thereof and a process for producing the same” (The Kitasato Institute, priority 1976, dated 1982).
# Read-outs that look alike come from different tables or passages of the source.
# Key:
# [1] = test system: Xanthomonas oryzae N-5824; experiment: microbe, parasite or virus in culture; assay type: cell-based; settings: N5824, 48 h, pH 7
# Mycoplasma pneumoniae = experiment: Minimal inhibitory concentration (PPLO agar); assay type: cell-based; settings: 192 h, Eiken PPLO agar, pH 7.8, 8 days, 37° C.
# [2] = test system: fungi belonging to the genus Trichophyton; experiment: Growth inhibition (text summary of Table 1); assay type: cell-based; settings: 96 h, some fungi of the genus, read-out: concentration at which growth is inhibited
# Protocol: | P potato agar (pH 6.4, 4 days, 27° C.)
# Staphylococcus aureus = experiment: Growth inhibition (text summary of Table 1); assay type: cell-based; settings: 48 h, read-out: concentration at which growth is inhibited
# Protocol: (§1) Medium N nutrient agar (pH 7.0, 2 days, 37° C.)
# Trichophyton verrucosum = experiment: Treatment of dermatomycosis of cattle; assay type: in vivo; parameters: key: +++: complete removal of scales and; ++: a little scales remained; +: removal of a part of scales; -: no removal of scale and no recovery
# Protocol: When dermatomycosis of cattle caused by mass infection of Trichophyton verrucosum is treated with nanaomycin A, nanaomycin A is dissolved or suspended in a suitable carrier, for example, olive oil, and is coated on the affected part directly with or without removal of the scales. […] The results obtained by once-coating of nanaomycin A and by twice-coating (the second coating is carried out a week after the first coating) are shown in Tables 2 and 3, respectively. | I : direct coating on affected part | II : coating after removing the scales of affected | Con. : concentration of agent
# [3] = test system: Klebsiella pneumoniae PCI 602; experiment: Minimal inhibitory concentration (agar); assay type: cell-based; settings: PCI602, 48 h, nutrient agar, pH 7.0, 2 days, 37° C.
# Mycoplasma gallisepticum [4] = experiment: Therapeutic effect on chronic respiratory disease of chickens; assay type: in vivo
# Escherichia coli NIHJ = experiment: Minimal inhibitory concentration (agar); assay type: cell-based; settings: 48 h, nutrient agar, pH 7.0, 2 days, 37° C.
# [5] = test system: Tricophyton metagorphytes; experiment: Treatment of dermatomycosis at the back of guinea pigs; assay type: in vivo; settings: 0.01-1% solution in propyleneglycol-ethanol (3:1 v/v), once daily for 8 days
# Aspergillus niger = experiment: Minimal inhibitory concentration (agar); assay type: cell-based; settings: Aspergillus niger, 96 h; potato agar, pH 6.4, 4 days, 27° C.; read-out: MIC
# Protocol: (§2) Minimal inhibitory concentration was assayed by agar dilution method
# (§3) (potato agar, pH 6.4, 27° C., 4 days).
# (§4) P potato agar (pH 6.4, 4 days, 27° C.)
# Mycobacterium smegmatis = experiment: Minimal inhibitory concentration (agar); assay type: cell-based; settings: Mycolicibacterium smegmatis, 48 h; nutrient agar, pH 7.0, 2 days, 37° C.
# Protocol: as §1
# (§5) MIC Minimal inhibitory concentration
# mycoplasma = experiment: Antimycoplasma activity, paper disc method; assay type: cell-based
# Protocol: Inhibitory zone is assayed by paper disc method (Eiken PPLO agar, pH 7.8,
# Nanaomycin A and derivatives thereof according to the present invention are assayed in a similar manner to that designated as the paper disc method by Itoh, et al [J. of Antibiotics, 24, 855-859 (1971)], for example, as follows: […]
# Mycoplasma gallisepticum [6] = experiment: Growth inhibition (text summary of Table 1); assay type: cell-based; settings: Mycoplasmoides gallisepticum, 192 h; read-out: concentration at which growth is inhibited
# Protocol: H Hokken PPLO agar (pH 7.8, 8 days, 37° C.)
# E Eiken PPLO agar (pH 7.8, 8 days, 37° C.)
# Trichophyton rubrum = experiment: Minimal inhibitory concentration (agar); assay type: cell-based; settings: pH 6.4, 4 days, 27° C.
# Protocol: as §4, §5, §2, §3
# Candida albicans = experiment: Minimal inhibitory concentration (agar); assay type: cell-based; settings: pH 6.4, 4 days, 27° C.
# Protocol: as §4, §5, §2, §3
# Trichophyton purpureum = experiment: Minimal inhibitory concentration (agar); assay type: cell-based; settings: 96 h, pH 6.4, potato agar, pH 6.4, 4 days, 27° C., read-out: MIC
# Trichophyton violaceum = experiment: Minimal inhibitory concentration (agar); assay type: cell-based; settings: Trichophyton violaceum, 96 h, pH 6.4, potato agar, pH 6.4, 4 days, 27° C.; read-out: MIC
# [7] = test system: Trichophyton mentagrophytes; experiment: Minimal inhibitory concentration (agar); assay type: cell-based; settings: 96 h, pH 6.4, potato agar, pH 6.4, 4 days, 27° C.
# Trichophyton pedis 804 = experiment: Minimal inhibitory concentration (agar); assay type: cell-based; settings: Trichophyton pedis, 804, 96 h, pH 6.4, potato agar, pH 6.4, 4 days, 27° C.; read-out: MIC
# [8] = once-coating, I direct coating, 0.1 mg/ml
# [9] = once-coating, I direct coating, 1 mg/ml
# [10] = once-coating, I direct coating, 10 mg/ml
# [11] = once-coating, II after removing scales, 0.1 mg/ml
# [12] = once-coating, II after removing scales, 1 mg/ml
# [13] = once-coating, II after removing scales, 10 mg/ml
# [14] = twice-coating, I direct coating, 0.1 mg/ml
# [15] = twice-coating, I direct coating, 1 mg/ml
# [16] = twice-coating, I direct coating, 10 mg/ml
# [17] = twice-coating, II after removing scales, 0.1 mg/ml
# [18] = twice-coating, II after removing scales, 1 mg/ml
# [19] = twice-coating, II after removing scales, 10 mg/ml
# [20] = Trichophyton rubrum, 96 h, pH 6.4, potato agar, read-out: MIC
# [21] = Candida albicans, 96 h, pH 6.4, potato agar, read-out: MIC
compound,measurement,setting,value
"CC1OC(CC(=O)O)CC2=C1C(=O)c1c(O)cccc1C2=O (stereo not drawn) [Nanaomycin A, nanaomycin A]",MIC,[1],62.5 µg/mL
same,MIC,Mycoplasma pneumoniae,0.013 µg/mL
same,MIC,[2],≤ 3.1 µg/mL
same,MIC,Staphylococcus aureus,2 to 8 µg/mL
same,Result after 1 week,Trichophyton verrucosum; [8],++
same,Result after 2 weeks,Trichophyton verrucosum; [8],++
same,Result after 3 weeks,Trichophyton verrucosum; [8],+++
same,Result after 4 weeks,Trichophyton verrucosum; [8],+++
same,Result after 1 week,Trichophyton verrucosum; [9],+++
same,Result after 2 weeks,Trichophyton verrucosum; [9],+++
same,Result after 3 weeks,Trichophyton verrucosum; [9],+++
same,Result after 4 weeks,Trichophyton verrucosum; [9],+++
same,Result after 1 week,Trichophyton verrucosum; [10],+++
same,Result after 2 weeks,Trichophyton verrucosum; [10],+++
same,Result after 3 weeks,Trichophyton verrucosum; [10],+++
same,Result after 4 weeks,Trichophyton verrucosum; [10],+++
same,Result after 1 week,Trichophyton verrucosum; [11],+++
same,Result after 2 weeks,Trichophyton verrucosum; [11],+++
same,Result after 3 weeks,Trichophyton verrucosum; [11],+++
same,Result after 4 weeks,Trichophyton verrucosum; [11],+++
same,Result after 1 week,Trichophyton verrucosum; [12],+++
same,Result after 2 weeks,Trichophyton verrucosum; [12],+++
same,Result after 3 weeks,Trichophyton verrucosum; [12],+++
same,Result after 4 weeks,Trichophyton verrucosum; [12],+++
same,Result after 1 week,Trichophyton verrucosum; [13],+++
same,Result after 2 weeks,Trichophyton verrucosum; [13],+++
same,Result after 3 weeks,Trichophyton verrucosum; [13],+++
same,Result after 4 weeks,Trichophyton verrucosum; [13],+++
same,Result after 1 week,Trichophyton verrucosum; [14],++
same,Result after 2 weeks,Trichophyton verrucosum; [14],+++
same,Result after 3 weeks,Trichophyton verrucosum; [14],+++
same,Result after 4 weeks,Trichophyton verrucosum; [14],+++
same,Result after 1 week,Trichophyton verrucosum; [15],++
same,Result after 2 weeks,Trichophyton verrucosum; [15],++
same,Result after 3 weeks,Trichophyton verrucosum; [15],+++
same,Result after 4 weeks,Trichophyton verrucosum; [15],+++
same,Result after 1 week,Trichophyton verrucosum; [16],+++
same,Result after 2 weeks,Trichophyton verrucosum; [16],+++
same,Result after 3 weeks,Trichophyton verrucosum; [16],+++
same,Result after 4 weeks,Trichophyton verrucosum; [16],+++
same,Result after 1 week,Trichophyton verrucosum; [17],+++
same,Result after 2 weeks,Trichophyton verrucosum; [17],+++
same,Result after 3 weeks,Trichophyton verrucosum; [17],+++
same,Result after 4 weeks,Trichophyton verrucosum; [17],+++
same,Result after 1 week,Trichophyton verrucosum; [18],+++
same,Result after 2 weeks,Trichophyton verrucosum; [18],+++
same,Result after 3 weeks,Trichophyton verrucosum; [18],+++
same,Result after 4 weeks,Trichophyton verrucosum; [18],+++
same,Result after 1 week,Trichophyton verrucosum; [19],+++
same,Result after 2 weeks,Trichophyton verrucosum; [19],+++
same,Result after 3 weeks,Trichophyton verrucosum; [19],+++
same,Result after 4 weeks,Trichophyton verrucosum; [19],+++
same,MIC,[3],31.3 µg/mL
same,therapeutic effect on chronic respiratory disease,Mycoplasma gallisepticum [4],exhibits therapeutic effect
same,MIC,Escherichia coli NIHJ,31.3 µg/mL
same,therapeutic effect on erythema and scales,[5],excellent therapeutic effect
same,MIC,Aspergillus niger,25 µg/mL
same,MIC,Mycobacterium smegmatis,62.5 µg/mL
same,zone of inhibition at 10 µg/mL,"mycoplasma; Mycoplasma, 24 h, 10 μg/ml, Eiken PPLO agar, pH 7.8, 37° C., 1 day, read-out: Inhibitory Zone",20.4 mm
same,zone of inhibition at 100 µg/mL,"mycoplasma; Mycoplasma, 24 h, 100 μg/ml, Eiken PPLO agar, pH 7.8, 37° C., 1 day, read-out: Inhibitory Zone",28.7 mm
same,antimycoplasma activity compared with deoxyfrenolicin and ethylkalafunginate,"mycoplasma; paper disc, Table 5",superior to those of deoxyfrenolicin and ethylkalafunginate
same,MIC,Mycoplasma gallisepticum [6],≤ 0.1 µg/mL
same,MIC,Trichophyton rubrum; [20],< 0.2 µg/mL
same,MIC,Trichophyton rubrum; potato agar,< 0.1 µg/mL
same,MIC,Candida albicans; [21],50 µg/mL
same,MIC,Candida albicans; potato agar,31.2 µg/mL
"CC(=O)Oc1cccc2c1C(=O)C1=C(CC(CC(=O)O)OC1C)C2=O (stereo not drawn) [Acetylnanaomycin A, acetylnanaomycin A]",MIC,Trichophyton purpureum,1.6 µg/mL
same,MIC,Trichophyton violaceum,0.8 µg/mL
same,MIC,[7],0.4 µg/mL
same,MIC,Trichophyton pedis 804,0.8 µg/mL
same,MIC,Trichophyton rubrum; [20],< 0.2 µg/mL
same,MIC,Candida albicans; [21],25 µg/mL
